Consider 18 compounds from ChEMBL document CHEMBL2346511, “Advances in the discovery of kinesin spindle protein (Eg5) inhibitors as antitumor agents” (Eur J Med Chem, 2013).

What is called IC50 is the midpoint of a concentration-inhibition curve. One may read the half-life as how long it takes for the measured level to halve. Read a high half-life as slow decline. As a reminder, the GI50 is the concentration that inhibits growth by half. Read a high GI50 as lower sensitivity of the cells.

Series [1] concerns the target T1, Kinesin-like protein KIF11 (Homo sapiens, UniProt P52732).
T1 sequence (P52732 whole entry): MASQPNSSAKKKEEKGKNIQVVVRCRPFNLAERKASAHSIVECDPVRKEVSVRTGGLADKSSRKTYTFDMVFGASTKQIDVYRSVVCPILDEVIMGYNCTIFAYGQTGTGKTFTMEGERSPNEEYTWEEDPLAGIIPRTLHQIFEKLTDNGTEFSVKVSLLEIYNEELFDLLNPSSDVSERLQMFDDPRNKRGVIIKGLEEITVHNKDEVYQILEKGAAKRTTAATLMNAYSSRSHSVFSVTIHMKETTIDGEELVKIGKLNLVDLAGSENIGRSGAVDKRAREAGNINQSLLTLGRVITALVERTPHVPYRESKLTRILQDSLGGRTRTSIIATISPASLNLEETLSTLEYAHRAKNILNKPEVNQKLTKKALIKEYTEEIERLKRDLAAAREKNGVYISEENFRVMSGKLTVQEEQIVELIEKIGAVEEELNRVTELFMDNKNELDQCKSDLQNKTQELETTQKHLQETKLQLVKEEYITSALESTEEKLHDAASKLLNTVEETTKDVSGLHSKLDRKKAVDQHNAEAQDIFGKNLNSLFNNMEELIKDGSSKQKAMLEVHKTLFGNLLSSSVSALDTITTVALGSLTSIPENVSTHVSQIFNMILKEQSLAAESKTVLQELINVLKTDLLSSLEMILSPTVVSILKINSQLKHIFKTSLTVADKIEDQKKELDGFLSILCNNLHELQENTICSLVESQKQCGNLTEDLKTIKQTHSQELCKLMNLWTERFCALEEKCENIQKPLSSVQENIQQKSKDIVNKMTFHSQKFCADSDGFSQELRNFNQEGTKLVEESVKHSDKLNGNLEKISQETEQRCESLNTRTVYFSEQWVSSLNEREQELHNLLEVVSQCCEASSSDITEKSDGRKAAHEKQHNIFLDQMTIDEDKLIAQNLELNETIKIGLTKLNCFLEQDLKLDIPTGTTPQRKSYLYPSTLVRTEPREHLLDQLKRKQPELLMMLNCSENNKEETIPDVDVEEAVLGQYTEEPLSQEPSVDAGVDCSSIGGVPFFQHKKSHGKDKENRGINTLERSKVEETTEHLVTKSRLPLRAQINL
In words: Inhibition of human recombinant Eg5 ATPase activity expressed in Escherichia coli after 30 mins by malachite green-based spectrophotometric analysis.

Series [2] concerns the target T1, Kinesin-like protein KIF11. The series can be described thus: Inhibition of human His-tagged Eg5 (1 to 368 amino acid residues) basal ATPase activity.
Series [3] addresses T1, Kinesin-like protein KIF11. The series can be described thus: Inhibition of human Eg5 assessed as inhibition of microtubule-induced ATPase activity.
The target in series [4] is T1, Kinesin-like protein KIF11. In words: Inhibition of human Eg5 basal ATPase activity.
Series [5] addresses T1, Kinesin-like protein KIF11. In words: Inhibition of Eg5 (unknown origin).
The target of series [6] is T2, Kinesin-like protein KIF11 (Homo sapiens) (UniProt P52732).
T2 sequence (whole entry): T1 sequence (P52732 whole entry)
The series can be described thus: Ratio of monastrol IC50 to compound IC50 for Eg5 (unknown origin).

Series [7] has as its target T1, Kinesin-like protein KIF11. The series can be described thus: Inhibition of Eg5 basal ATPase activity (unknown origin).
Series [8] deals with T1, Kinesin-like protein KIF11. The series can be described thus: Inhibition of Eg5 assessed as inhibition of microtubule-induced ATPase activity (unknown origin).
Series [9] in a line: Half life in solid tumor patient at 7 mg/m2 administered as infusion for 1 hr per week for 3 weeks. It is filed as ADME, organism-based. To be noted: human, in vivo, iv.
Series [10] can be described thus: Antitumor activity against breast cancer in patients at 12 mg/m2 administered as 1 hr infusion on day 1 and 15 measured after 28 days. It is filed as functional, Homo sapiens, Breast cancer cell.
In series [11] the test system is Homo sapiens. The series can be described thus: Toxicity in breast cancer patient administered as infusion for 1 hr on day 1 and 15 measured after 28 days. Format: organism-based. The settings on record: in vivo, iv, 672 h.
The test system of series [12] is Homo sapiens. The series can be described thus: Toxicity in prostate cancer patient administered once every 3 weeks. The settings on record: in vivo, 504 h. It is filed as organism-based, Prostate gland.
The nature of series [13]: Antiproliferative activity against human NCI60 cells.
The target in series [14] is T1, Kinesin-like protein KIF11. The series can be described thus: Inhibition of Eg5 in human HCT116 cells assessed as inhibition of microtubule-induced ATPase activity after 18 hrs. Format: cell-based, HCT-116.
Series [15] can be described thus: Half life in cancer patient at 30 mg, iv administered as infusion for 1 hr on days 1, 8 and 15 measured after 28 days. The settings on record: human, in vivo.
In series [16] the test system is Homo sapiens. The series can be described thus: Toxicity in iv dosed cancer patient administered as infusion for 1 hr on days 1, 8 and 15 measured after 28 days. It is filed as organism-based. The settings on record: in vivo, 672 h.
The subject of series [17] is Homo sapiens. The series can be described thus: Toxicity in acute myeloid leukemia patient administered as infusion for 1 hr on 3 consecutive days measured after 2 weeks. To be noted: in vivo, iv, 336 h. It is filed as organism-based.
The nature of the next series: clinical. To be noted: human, in vivo, iv, 16 mg/day.
Series [18] relates to Homo sapiens. The series can be described thus: Toxicity in cancer patient administered as infusion for 1 hr every 21 days. To be noted: in vivo, iv. It is filed as organism-based.

Description for clinical: Half life in acute myeloid leukemia patient at 16 mg/day administered as infusion for 1 hr on 3 consecutive days measured after 2 weeks

For the compound `Cc1cc2c(C(C)C)c(O)c(O)c(C=O)c2c(O)c1-c1c(C)cc2c(C(C)C)c(O)c(O)c(C=O)c2c1O` [GOSSYPOL], the IC50 in [1] is 10800 nM.
`O=C1CCCC2=C1[C@H](c1cc(O)ccc1Br)NC(=S)N2` displayed an IC50 in [2] of 350 nM.
With `CC(C)(O)[C@@H]1C[C@@H](O)[C@]2(C)[C@H](CC[C@@]3(C)[C@H]2CC[C@H]2Cc4c([nH]c5ccccc45)[C@@]23C)O1` [TERPENDOLE E], the IC50 in series [3] and in series [4] was 23000 nM in each case.
As to `O=C1[C@@H]2Cc3c([nH]c4ccccc34)[C@@H](c3cccc(O)c3)N2C(=O)N1Cc1ccccc1`, 650 nM corresponded to half-maximal inhibition in series [5] (IC50).
In turn, `CCOC(=O)C1=C(C)NC(=S)NC1c1cccc(O)c1` (centres undefined) [MONASTROL] gave an IC50 in [5] of 30000 nM.
On to `Cc1ccc(C(=O)N2CCc3cc4c(cc3C2c2cccc(O)c2)OCO4)cc1` (centres undefined), for which, in series [1], the IC50 worked out at 60 nM. Further, the Ratio IC50 in [6] was > 100.
In the case of `CC1(C)CCC[C@]2(C)O[C@H]3CC[C@@]4(C)[C@@H](CC[C@]5(C)[C@@H]4CC[C@]4(C)c6c(OS(=O)(=O)O)ccc(OS(=O)(=O)O)c6C[C@@H]54)[C@]3(C)CC[C@@H]12` [ADOCIASULFATE-2], the IC50 in [7] is 3500 nM; in series [8] it was 5300 nM.
With `CC1=C(C(=O)Nc2ccc(Cl)cc2)C(c2ccccc2)C2=C(CC(C)(C)CC2=O)N1` (centres undefined), the IC50 in series [1] turned out to be 100 nM.
As for `CON(C)C(=O)N1N=C(c2cc(F)ccc2F)S[C@@]1(CCCN)c1ccccc1` [FILANESIB], in series [5], 6 nM corresponded to half-maximal inhibition (IC50).
With `CS(=O)(=O)O.Cc1ccc(C(=O)N(CCCN)[C@@H](c2nc3cc(Cl)ccc3c(=O)n2Cc2ccccc2)C(C)C)cc1` [ISPINESIB MESYLATE], the half-life in [9] is 33 h. For the same compound, the Activity in series [10] is 9%. For the same compound, the figures for the MTD in the series with Homo sapiens [11] and in the series on Homo sapiens [12] were 12 mg/m2 and 18 mg/m2, respectively.
In the case of `CCC(c1nc2ccccc2n1Cc1ccccc1)N(CCCN(C)C)C(=O)c1ccc(Br)cc1` (centres undefined), the IC50 in [5] was 40 nM.
With `O=C1CCCC2=C1[C@H](c1cccc(O)c1)NC(=S)N2`, the Ratio IC50 in series [6] came out at 10.
For `N[C@@H](CSC(c1ccccc1)(c1ccccc1)c1ccccc1)C(=O)O` [S-TRITYL-L-CYSTEINE], in [13], it took 1300 nM to inhibit growth by half (GI50).
On to `CC(=O)NC1=NN(C(C)=O)C(C)(c2ccccc2)S1` (centres undefined), for which the IC50 in series [14] was found to be 1300 nM.
As for `O=C(c1ccc(O)cc1)N1CCc2cc3c(cc2C1c1cccc(O)c1)OCO3` (centres undefined), the IC50 in series [1] was 40 nM. Further, the Ratio IC50 in series [6] was > 100.
In the same order, the values of `NCCC(=O)N1CCc2cc3c(cc2C1c1cccc(O)c1)OCO3` (centres undefined) are 20 nM and > 100.
`Cc1ccc(C(=O)N(CCCN)C(c2nc3snc(C)c3c(=O)n2Cc2ccccc2)C(C)C)cc1` (single isomer, unassigned; (+)) [AZD-4877] showed a half-life at 672 h in series [15] of 16 h. Moreover, the MTD is 30 mg with Homo sapiens [16] and 16 mg/day in the series with Homo sapiens [17]. Further, the half-life at 336 h in the series “clinical” was 17 h.
Take `Cc1ccc(C(=O)N(CCCN)[C@@H](c2oc3cc(Cl)ccc3c(=O)c2Cc2ccccc2)C(C)C)cc1` [SB-743921]: the MTD in the series with Homo sapiens [18] was 4 mg/m2.
